# “Also recorded” adds a separate entry of the source.
# Test system: 4E10 mAb
# Test: Binding of chromophore labeled tetramers to 4E10 antibody coated beads
# Details: chromophore on tetramer-SA complex
# Text: FIGS. 6A-6F: Binding of chromophore labeled tetramers to 4E10 antibody coated beads. In all panels, shaded curves show binding to control Ig-coated beads and solid lines show binding to 4E10 coated beads. FIG. 6A. 2F5-epitope tetramers labeled with APC. FIG. 6B. 2F5-epitope tetramers labeled with PE-AF680. FIG. 6C. V3-epitope tetramers labeled with PE-AF750. FIG. 6D. Scrambled 2F5-epitope tetramers labeled with APC. FIG. 6E. Scrambled 2F5-epitope tetramers labeled with PE-AF680. FIG. 6F. Scrambled V3-epitope tetramers labeled with PE-AF750. Thus, 4E10 mAb binds to phycoerythrin on any tetramer-SA complex.
# The specificity of the tetramers can be determined using a panel of murine hybridoma cell lines that produce either antibodies that react with the 2F5 epitope (5A9), the 4E10 epitope of HIV gp41 (10B12) or the V3 region of HIV gp120 (7B9 or F39F). Using these cell lines, the B cell tetramer can be bound to the cell line and assayed for binding by, for example, flow cytometry (FIGS. 4A and 4B). Alternatively, the 2F5, 4E10 anti-MPER and 7B9 anti-V3 mAbs can be conjugated to, for example, a […], and the specificity of tetramer binding to the beads determined (FIG. 5).
# Studies conducted have shown that a mimetope of the MPER 4E10 region is phycoerythrin, in that 4E10 mAb coated beads bound tetramer labeled with phycoerythrin but not allophycocyanin (APC) (FIG. 6). […]
substance,measurement,value
allophycocyanin [allophycocyanin (APC)],binding to 4E10 mAb coated beads,not
phycoerythrin,binding to 4E10 mAb coated beads,binds; also recorded: bound
